Values quoted from earlier work, collected in PubChem BioAssay AID1259409 (Chemical Carcinogenesis Research Information System (CCRIS), 2018).

Tested on: rodent chemically induced tumor inhibition, incidence and multiplicity
Experiment: CCRIS tumor inhibitor studies

CN(C)CCOc1ccc(/C(=C(/CCCl)c2ccccc2)c2ccccc2)cc1
tumour outcome (control, treated, inhibition, significance) (Carcinogen: N-METHYL-N-NITROSOUREA (684-93-5), Dose [Inhibitor]: 0, 0.2 MG/30 G BW ONCE EVERY 4 WK BEGINNING 1 WK POST CARCINOGEN DOSE (STUDY DURATION: 31 WK), Route [Inhibitor]: SUBCUTANEOUS, Species: MOUSE, Strain/Sex: ICR/FEMALE, Target Tissue: Type of Lesion: UTERUS: ENDOMETRIAL ADENOCARCINOMA, Dose [Carcinogen]: 1 MG/100 G BW IN 0.1 ML SALINE ONCE AT 10 WKS OF AGE, Promoter: 17 BETA-ESTRADIOL (50-28-2)): 8/24 (33%), 1/19 (5%), 85%, p< 0.01 | tumour outcome (control, treated, inhibition, significance) (Carcinogen: N-METHYL-N-NITROSOUREA, 684-93-5, Dose [Inhibitor]: 0, 100 MG/KG IN DIET FOR 28 D THEN REDUCED TO 50 MG/KG IN DIET FOR THE DURATION OF STUDY (STUDY DURATION: 187 D), Route [Inhibitor]: ORAL, Species: RAT, Strain/Sex: SPRAGUE-DAWLEY/FEMALE, Target Tissue: Type of Lesion: MAMMARY GLAND: TUMOR, Dose [Carcinogen]: 50 MG/KG BW ONCE, Promoter: NONE USED): 100%, 46%, 54%, p<0.05

NC(C[Se][Se]CC(N)C(=O)O)C(=O)O (configuration not stated)
tumour outcome (control, treated, inhibition, significance) (Carcinogen: 7,12-DIMETHYLBENZ[A]ANTHRACENE, 57-97-6, Dose [Inhibitor]: 0, 0.2 PPM IN DIET BEGINNING 3 D PRIOR TO CARCINOGEN DOSE AND CONTINUING FOR 8 MO (STUDY DURATION: 8 MO), Route [Inhibitor]: ORAL, Species: MOUSE, Strain/Sex: BALB/FEMALE, Target Tissue: Type of Lesion: MAMMARY GLAND: ADENOCARCINOMA, Dose [Carcinogen]: 1 MG/WK FOR 6 WK, Promoter: NONE USED): 12/31 (39%), 8/28 (29%), 26%, not calculated | tumour outcome (control, treated, inhibition, significance) (Carcinogen: 7,12-DIMETHYLBENZ[A]ANTHRACENE, 57-97-6, Dose [Inhibitor]: 0, 2 PPM IN DIET BEGINNING 3 D PRIOR TO CARCINOGEN DOSE AND CONTINUING FOR 8 MO (STUDY DURATION: 8 MO), Route [Inhibitor]: ORAL, Species: MOUSE, Strain/Sex: BALB/FEMALE, Target Tissue: Type of Lesion: MAMMARY GLAND: ADENOCARCINOMA, Dose [Carcinogen]: 1 MG/WK FOR 6 WK, Promoter: NONE USED): 12/31 (39%), 7/24 (29%), 26%, not calculated

c1cc2ccc3ccc4ccc5cccc6c(c1)c2c3c4c56
tumour outcome (control, treated, inhibition, significance) (Carcinogen: BENZO[A]PYRENE, 50-32-8, Dose [Inhibitor]: 7 UG IN 0.1 ML ACETONE 3/WK ADMINISTERED SIMULTANEOUSLY WITH CARCINOGEN FOR DURATION OF STUDY (STUDY DURATION: 368 D), Route [Inhibitor]: DERMAL, Species: MOUSE, Strain/Sex: ICR/FEMALE, Target Tissue: Type of Lesion: SKIN: PAPILLOMA, Dose [Carcinogen]: 5 UG IN 0.1 ML ACETONE 3/WK FOR DURATION OF STUDY, Promoter: NONE USED): 14/50 (28%), 19/50 (38%), -36%, not calculated | tumour outcome (control, treated, inhibition, significance) (Carcinogen: BENZO[A]PYRENE, 50-32-8, Dose [Inhibitor]: 7 UG IN 0.1 ML ACETONE 3/WK ADMINISTERED SIMULTANEOUSLY WITH CARCINOGEN FOR DURATION OF STUDY (STUDY DURATION: 368 D), Route [Inhibitor]: DERMAL, Species: MOUSE, Strain/Sex: ICR/FEMALE, Target Tissue: Type of Lesion: SKIN: SQUAMOUS CARCINOMA, Dose [Carcinogen]: 5 UG IN 0.1 ML ACETONE 3/WK FOR DURATION OF STUDY, Promoter: NONE USED): 10/50 (20%), 10/50 (20%), 0%, not calculated | tumour outcome (control, treated, inhibition, significance) (Carcinogen: BENZO[A]PYRENE, 50-32-8, Dose [Inhibitor]: 21 UG IN 0.1 ML ACETONE 3/WK ADMINISTERED SIMULTANEOUSLY WITH CARCINOGEN FOR DURATION OF STUDY (STUDY DURATION: 368 D), Route [Inhibitor]: DERMAL, Species: MOUSE, Strain/Sex: ICR/FEMALE, Target Tissue: Type of Lesion: SKIN: PAPILLOMA, Dose [Carcinogen]: 5 UG IN 0.1 ML ACETONE 3/WK FOR DURATION OF STUDY, Promoter: NONE USED): 14/50 (28%), 20/50 (40%), -43%, not calculated | tumour outcome (control, treated, inhibition, significance) (Carcinogen: BENZO[A]PYRENE, 50-32-8, Dose [Inhibitor]: 21 UG IN 0.1 ML ACETONE 3/WK ADMINISTERED SIMULTANEOUSLY WITH CARCINOGEN FOR DURATION OF STUDY (STUDY DURATION: 368 D), Route [Inhibitor]: DERMAL, Species: MOUSE, Strain/Sex: ICR/FEMALE, Target Tissue: Type of Lesion: SKIN: SQUAMOUS CARCINOMA, Dose [Carcinogen]: 5 UG IN 0.1 ML ACETONE 3/WK FOR DURATION OF STUDY, Promoter: NONE USED): 10/50 (20%), 18/50 (36%), -80%, not calculated

C=CC1=C(C)C2=NC1=CC1=NC(=CC3=C(C)C4=C(O)[C@H](C(=O)OC)C(=C5NC(=C2)[C@@H](C)[C@@H]5CCC(=O)O)C4=N3)C(CC)=C1C
tumour outcome (control, treated, inhibition, significance) (Carcinogen: 7,12-DIMETHYLBENZ[A]ANTHRACENE, 57-97-6, Dose [Inhibitor]: 0, 16 NMOL IN 0.1 ML ACETONE 2/WK FOR 20 WK APPLIED 40 MIN PRIOR TO EACH PROMOTER DOSE (STUDY DURATION: 21 WK), Route [Inhibitor]: DERMAL, Species: MOUSE, Strain/Sex: ICR/FEMALE, Target Tissue: Type of Lesion: SKIN: TUMOR, Dose [Carcinogen]: 0.19 UMOL IN 0.1 ML ACETONE ONCE, Promoter: 12-O-TETRADECANOYLPHORBOL-13-ACETATE, 16561-29-8): 100%, 72%, 28%, p<0.005 | tumour outcome (control, treated, inhibition, significance) (Carcinogen: 7,12-DIMETHYLBENZ[A]ANTHRACENE, 57-97-6, Dose [Inhibitor]: 0, 160 NMOL IN 0.1 ML ACETONE 2/WK FOR 20 WK APPLIED 40 MIN PRIOR TO EACH PROMOTER DOSE (STUDY DURATION: 21 WK), Route [Inhibitor]: DERMAL, Species: MOUSE, Strain/Sex: ICR/FEMALE, Target Tissue: Type of Lesion: SKIN: TUMOR, Dose [Carcinogen]: 0.19 UMOL IN 0.1 ML ACETONE ONCE, Promoter: 12-O-TETRADECANOYLPHORBOL-13-ACETATE, 16561-29-8): 100%, 69%, 31%, p<0.005

COc1cc([C@@H]2Oc3cc([C@H]4Oc5cc(O)cc(O)c5C(=O)[C@@H]4O)ccc3O[C@H]2CO)ccc1O
tumour outcome (control, treated, inhibition, significance) (Carcinogen: 1,2-DIMETHYLHYDRAZINE, 540-73-8, Dose [Inhibitor]: 0, 0.1% IN DIET FOR 32 WK BEGINNING AT 24 D OF AGE (STUDY DURATION: 32 WK), Route [Inhibitor]: ORAL, Species: RAT, Strain/Sex: SPRAGUE-DAWLEY/MALE, Target Tissue: Type of Lesion: COLON: ADENOCARCINOMA, Dose [Carcinogen]: 20 MG/KG 1/WK FOR 15 WK BEGINNING ON D 37, Promoter: NONE USED): 19/22 (86%), 11/16 (69%), 20%, not calculated | tumour outcome (control, treated, inhibition, significance) (Carcinogen: 1,2-DIMETHYLHYDRAZINE, 540-73-8, Dose [Inhibitor]: 0, 0.1% IN DIET FOR 32 WK BEGINNING AT 24 D OF AGE (STUDY DURATION: 32 WK), Route [Inhibitor]: ORAL, Species: RAT, Strain/Sex: SPRAGUE-DAWLEY/MALE, Target Tissue: Type of Lesion: SMALL INTESTINE: ADENOCARCINOMA, Dose [Carcinogen]: 20 MG/KG 1/WK FOR 15 WK BEGINNING ON D 37, Promoter: NONE USED): 18/22 (82%), 9/16 (56%), 32%, not calculated | tumour outcome (control, treated, inhibition, significance) (Carcinogen: N-BUTYL-N-(4-HYDROXYBUTYL)NITROSAMINE, 3817-11-6, Dose [Inhibitor]: 0, 1000 PPM IN DIET FOR 8 WK (STUDY DURATION: 32 WK), Route [Inhibitor]: ORAL, Species: MOUSE, Strain/Sex: ICR/MALE, Target Tissue: Type of Lesion: URINARY BLADDER: PAPILLOMA, Dose [Carcinogen]: 500 PPM IN DRINKING WATER FOR 6 WK BEGINNING 1 WK AFTER FIRST INHIBITOR DOSE, Promoter: NONE USED): 2/44 (5%), 1/34 (3%), 40%, not significant | tumour outcome (control, treated, inhibition, significance) (Carcinogen: N-BUTYL-N-(4-HYDROXYBUTYL)NITROSAMINE, 3817-11-6, Dose [Inhibitor]: 0, 1000 PPM IN DIET FOR 8 WK (STUDY DURATION: 32 WK), Route [Inhibitor]: ORAL, Species: MOUSE, Strain/Sex: ICR/MALE, Target Tissue: Type of Lesion: URINARY BLADDER: TRANSITIONAL CELL CARCINOMA, Dose [Carcinogen]: 500 PPM IN DRINKING WATER FOR 6 WK BEGINNING 1 WK AFTER FIRST INHIBITOR DOSE, Promoter: NONE USED): 17/44 (39%), 4/34 (12%), 69%, p< 0.01 | outcome (Carcinogen: N-BUTYL-N-(4-HYDROXYBUTYL)NITROSAMINE, 3817-11-6, Dose [Inhibitor]: 0, 1000 PPM IN DIET FOR 24 WK BEGINNING 1 WK POST FINAL CARCINOGEN DOSE (STUDY DURATION: 32 WK), Route [Inhibitor]: ORAL, Species: MOUSE, Strain/Sex: ICR/MALE, Target Tissue: Type of Lesion: URINARY BLADDER: PAPILLOMA, Dose [Carcinogen]: 500 PPM IN DRINKING WATER FOR 6 WK BEGINNING 1 WK AFTER FIRST INHIBITOR DOSE, Promoter: NONE USED): 2/44 (5), 5/30 (17%), -240%, not significant | tumour outcome (control, treated, inhibition, significance) (Carcinogen: N-BUTYL-N-(4-HYDROXYBUTYL)NITROSAMINE, 3817-11-6, Dose [Inhibitor]: 0, 1000 PPM IN DIET FOR 24 WK BEGINNING 1 WK POST FINAL CARCINOGEN DOSE (STUDY DURATION: 32 WK), Route [Inhibitor]: ORAL, Species: MOUSE, Strain/Sex: ICR/MALE, Target Tissue: Type of Lesion: URINARY BLADDER: TRANSITIONAL CELL CARCINOMA, Dose [Carcinogen]: 500 PPM IN DRINKING WATER FOR 6 WK BEGINNING 1 WK AFTER FIRST INHIBITOR DOSE, Promoter: NONE USED): 17/44 (39%), 5/30 (17%), 56%, p< 0.05 | outcome (Carcinogen: N-Butyl-N-(4-hydroxybutyl)nitrosamine, 3817-11-6, Dose [Inhibitor]: 200 mg/kg bw 1 wk before carcinogen, dose duration 51 wk, study duration 56 wk, Route [Inhibitor]: Oral (gavage) 5 d/wk, Species: Mouse, Strain/Sex: ICR/Male, Target Tissue: Type of Lesion: Urinary Bladder: carcinoma, Dose [Carcinogen]: 0, 0.5% in drinking water for 6 wk, Promoter: None): 52%, 7.7%, p=0.001
